Data taken from ChEMBL document CHEMBL3137381, “MMV Box Onchocerca lienalis screening set”.

Legend:
Type in all cases: functional
Onchocerca lienalis [1] = assay: MMV: Percent motility assay at a compound concentration of 1.25e-5 M. Activity score legend: 3: Active, 2: Moderately active; 1: Inactive, 0: Toxic; details: at 12.5 µM
Onchocerca lienalis [2] = assay: MMV: Percent motility assay at a compound concentration of 3.1e-6 M. Activity score legend: 3: Active, 2: Moderately active; 1: Inactive, 0: Toxic; details: at 3.1 µM
Onchocerca lienalis [3] = assay: MMV: Percent motility assay at a compound concentration of 1.9e-7 M. Activity score legend: 3: Active, 2: Moderately active; 1: Inactive, 0: Toxic; details: at 0.19 µM
Onchocerca lienalis [4] = assay: MMV: Percent motility assay at a compound concentration of 7.8e-7 M. Activity score legend: 3: Active, 2: Moderately active; 1: Inactive, 0: Toxic; details: at 0.78 µM

SMILES	Motility (Onchocerca lienalis [1]) [%]	Motility (Onchocerca lienalis [2]) [%]	Motility (Onchocerca lienalis [3]) [%]	Motility (Onchocerca lienalis [4]) [%]
CCOc1ccccc1CN1CCc2nc3cc(C(C)(C)C)nn3c(O)c2C1	100	100	100	100
Cc1cc(N2CCCC2)nc(Nc2ccc(NC(=O)CCc3ccccc3)cc2)n1	13.33	66.66	100	100
CN1CCN(c2ncnc3c2[nH]c2ccc(Cl)cc23)CC1	100	100	100	100
O=C1c2ccccc2-c2nnc(-c3ccc(Br)cc3)cc21	100	100	100	100
CCOC(=O)C1=C(C)N=c2sc(=Cc3cc(Cl)ccc3O)c(=O)n2C1c1ccc(OC)cc1 (configuration not stated)	100	100	100	100
Cc1nc2ccccc2c(O)c1CC=C(Cl)Cl	100	100	100	100
FC(F)(F)c1cccc(Nc2nc3ccccc3nc2Nc2cccc(C(F)(F)F)c2)c1	100	100	100	100
COc1ccc2nc(C)cc(Nc3cccc(O)c3)c2c1.Cl	100	100	100	100
CN(C)CCCNCc1ccc(-c2ccc(F)c(Cl)c2)o1.Cl	100	100	100	100
O=c1nc(C=Cc2ccc(Br)cc2)oc2ccccc12	100	100	100	100
COc1ccc2nc(N)nc(C)c2c1	100	100	100	100
CC(=O)c1ccc(NC(=O)CSc2nc(-c3ccccc3Cl)ns2)cc1	100	100	100	100
COc1ccc(C(=O)NC(c2ccc(Cl)cc2Cl)c2cc(Cl)c3cccnc3c2O)cc1 (configuration not stated)	100	100	100	100
CCC(=O)Nc1nnc(Cc2ccc(OC)c(OC)c2)s1	100	100	100	100
O=C(NCCCN1CCC(N2CCCCC2)CC1)C1=Cc2cc(Br)ccc2OC1	100	100	100	100
Cc1ccnc(NC(c2cccc(OCc3ccccc3)c2)c2ccc3cccnc3c2O)c1 (configuration not stated)	100	100	100	100
Cc1ccc(OCCCCCCNCCO)c(C)c1	100	100	100	100
COc1cccc(C(=O)Nc2ccc(-c3nc4ccccc4[nH]3)cc2)c1	100	100	100	100
CC(C)CCNCC(O)Cn1c2ccccc2c2ccccc21.Cl (configuration not stated)	100	100	100	100
CCOC(=O)c1cnc2ccc(Cl)cc2c1NCCCN(C)C	100	100	100	100
CCOc1ccccc1NC(=O)CN1CCN(C(=O)c2ccco2)CC1	100	100	100	100
O=C(Nc1ccc(C23CC4CC(CC(c5ccccc5)(C4)C2)C3)cc1)c1cccs1	100	100	100	100
O=C1c2ccccc2C2=Nc3ccccc3SC(c3cccc(F)c3)C12 (configuration not stated)	100	100	100	100
Cc1ccccc1OCCSc1nc2ccc(NC(=O)c3ccccc3)cc2s1	100	100	100	100
Cc1ccc2nc(C)cc(Nc3cccc(C(F)(F)F)c3)c2c1.Cl	100	100	100	100
CC(C)(C)c1ccc(C(=O)Nc2c3c(nn2-c2cccc(Cl)c2)CSC3)cc1	100	100	100	100
CCOc1cc2c(cc1OCC)C(c1cc(Cl)c(O)c(OCC)c1)NCC2 (configuration not stated)	100	100	100	100

SMILES	Motility (Onchocerca lienalis [1]) [%]	Motility (Onchocerca lienalis [2]) [%]	Motility (Onchocerca lienalis [3]) [%]	Motility (Onchocerca lienalis [4]) [%]
COc1ccc(N2CCN(C(CNC(=O)CC(C)(C)C)c3ccc4c(c3)OCO4)CC2)cc1 (configuration not stated)	100	100	100	100
CCCCCCn1c(=N)n(CC(O)COc2cccc(C)c2)c2ccccc21.Cl (configuration not stated)	100	100	100	100
COc1ccc(-c2cc(=O)oc3c4c(ccc23)OCN(Cc2ccc(F)cc2)C4)cc1	100	100	100	100
CCOC(=O)C1(Cc2ccccc2)CCN(Cc2cccc(OC)c2O)CC1	100	100	100	100
Oc1ccc(C(=C(Cl)Cl)c2ccc(O)cc2)cc1	100	100	100	100
CC(C)(C)c1ccc2c(c1)CN(Cc1ccc(Cl)cc1)CO2	100	100	100	100
CCCCC(O)(c1ccc(Cl)cc1)C(CN1CCOCC1)c1ccc(Cl)cc1.Cl (configuration not stated)	100	100	100	100
COc1ccc(OC)c(C2C3=C(CC(C)(C)CC3=O)N(c3ccc(Cl)c(Cl)c3)C3=C2C(=O)CC(C)(C)C3)c1	100	100	100	100
Cc1cc(=O)oc2c1ccc1oc(C(=O)c3ccccc3)c(C)c12	100	100	100	100
COc1ccc(CN2CCN(Cc3ccccc3)CC2)c(O)c1	100	100	100	100
COc1ccc2c(c1OC)C(=O)N1c3ccccc3N=C(c3ccc(C)cc3)CC21 (configuration not stated)	100	100	100	100
Oc1c(CN2CCN(c3ccccc3F)CC2)cc(Br)c2cccnc12	66.66	100	100	100
CCCCCCc1cc(O)c2c3c(c(=O)oc2c1)CCC(C)C3 (configuration not stated)	100	100	100	100
Cl.OC(CNCc1ccccc1)Cn1c2ccccc2c2ccccc21 (configuration not stated)	100	100	100	100
COc1ccc(CCNC(=O)c2cc(S(=O)(=O)N3CC(C)CC(C)C3)ccc2Sc2ccc(F)cc2)cc1OC (configuration not stated)	100	100	100	100
CC1=C(CC(=O)c2cccc([N+](=O)[O-])c2)C(=O)c2ccccc2C1=O	100	100	100	100
OC1CCCCC1C1(NC(=S)Nc2ccccc2)CCCCC1 (configuration not stated)	100	100	100	100
OC1=C2C(=Nc3ccccc3SC2c2ccc(Br)cc2)c2ccccc21 (configuration not stated)	100	100	100	100
COc1ccc(C)c2sc(N(Cc3cccnc3)C(=O)c3ccc(C#N)cc3)nc12	100	100	100	100
Clc1ccc2c(N3CCCC3)ccnc2c1	100	100	100	100
COc1ccc(C(=O)C2CC2c2ccc(Cl)cc2)cc1 (configuration not stated)	100	100	100	100
CCCCCn1c(=N)n(CC(O)COc2cccc(C)c2)c2ccccc21.Cl (configuration not stated)	100	100	100	100
O=c1c2c([nH]c3ccccc13)CCCC2	100	100	100	100
CCN1CCN(c2c(C(=O)c3ccccc3)cnc3cc(OC)c(OC)cc23)CC1	100	100	100	100
Cc1ccc(S(=O)(=O)c2c(COC(=O)c3cccc(C)c3)c(-c3ccccc3)nn2C)cc1	100	100	100	100
CCCCN(CCCC)S(=O)(=O)c1ccc(NC(=O)c2ccco2)cc1	100	100	100	100
